# Results as given in publication PMC6915728 (Nature Communications, 2019).
# Legend:
# [1] = tested on: E. coli K12 BW25113 carrying the pooled ASKA overexpression plasmid library (~4400 ORFs); experiment: Chemical-genetic profiling: pooled competitive growth of the ASKA gene-overexpression library with and without AMP, deep sequencing readout; type: cell-based, Escherichia coli; details: whether the literature phenotype was captured by the overexpression screen
# Method in brief: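 Pooled ASKA plasmids in BW25113, IPTG-induced (100 µM) in MS medium with chloramphenicol, competed ~12 generations with or without AMP at a sub-inhibitory level doubling population doubling time. Plasmid pools exonuclease-cleaned and deep-sequenced for relative plasmid abundance; two replicates per AMP, five untreated; empty-vector strain controls genomic background.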
# bacterial membrane = details: literature mining; ref superscript numbers in the cell, listed in Supplementary Data 7 sheet References; cited from earlier work
# Excerpt: Supplement 41467_2019_13618_MOESM10_ESM.xlsx, sheet "AMP details" | column: Pore formation
# E. coli BW25113 ΔmlaD = experiment: MIC, serial broth dilution, mlaD knockout strain vs wild type; type: cell-based, Escherichia coli; details: mlaD deletion strain vs control E. coli BW25113; average of 3 replicates
# [2] = tested on: E. coli BW25113 overexpression strains (ASKA plasmids); experiment: Minimum inhibitory concentration (MIC), serial broth dilution, single-gene overexpression strains vs empty-vector control; type: cell-based, Escherichia coli; details: for Relative MIC: broth dilution, MS medium, 100 µM IPTG, 30 °C, 20-24 h, OD600, 3 replicates
# Method in brief: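 E. coli overexpression strains grown in MS medium with chloramphenicol, induced with 100 µM IPTG for 1 h at 30 °C, then about half-million cells inoculated into 12-step AMP dilutions (typically 1.2-fold steps). OD600 read after 20–24 h at 30 °C with shaking; triplicate strains compared with empty-vector control.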
sequence,measurement,setting,value
"TSSPPAAVVVRRRRRRRRRRRRRRRRRRR [PROA, Protamine, source herring, purchased from Sigma-Aldrich; cluster C3]","Overexpression phenotype, Chemical-genetic profile",[1]; gene nlpE,Confirmed
same,"Overexpression phenotype, Chemical-genetic profile",[1]; gene ompT,Confirmed
same,Pore formation (whether AMP makes pores in the bacterial membrane),bacterial membrane,No43
same,Average relative change in MIC,E. coli BW25113 ΔmlaD,0.43
same,Average relative change in MIC,"[2]; mlaD overexpression strain relative to control (wild-type+empty vector), 3 replicates each, from optical density values of serial dilution plates, AMP in µg ml-1",0.70
same,Relative MIC,"[2]; overexpression strain cvpA, MIC of overexpression strain / MIC of empty-plasmid control",0.78
same,Relative MIC,"[2]; overexpression strain gadW, MIC of overexpression strain / MIC of empty-plasmid control",0.78
same,Relative MIC,"[2]; overexpression strain lptB, MIC of overexpression strain / MIC of empty-plasmid control",0.51
same,Relative MIC,"[2]; overexpression strain mlaD, MIC of the overexpression strain / MIC of the control strain (wild-type carrying the empty plasmid)",0.72
same,Relative MIC,"[2]; overexpression strain mzrA, MIC of overexpression strain / MIC of empty-plasmid control",0.36
same,Relative MIC,"[2]; overexpression strain nikB, MIC of overexpression strain / MIC of empty-plasmid control",<0.71
same,Relative MIC,"[2]; overexpression strain ompT, MIC of overexpression strain / MIC of empty-plasmid control",>2.5
same,Relative MIC,"[2]; overexpression strain ptsN, MIC of overexpression strain / MIC of empty-plasmid control",1.47
same,Relative MIC,"[2]; overexpression strain uhpC, MIC of overexpression strain / MIC of empty-plasmid control",<0.61
same,Relative MIC,"[2]; overexpression strain yhbJ, MIC of overexpression strain / MIC of empty-plasmid control",0.69
same,Relative MIC,"[2]; overexpression strain ytjB, MIC of overexpression strain / MIC of empty-plasmid control",0.8
